Data taken from patent US20250326748A1, “COMPOUNDS AND METHODS FOR MODULATING SPLICING” (REMIX THERAPEUTICS INC., priority 2022, published 2025).
Where two headings read alike, the source gives them in different places.

Key:
Format in all cases: cell-based, human
[1] = tested on: HTT mRNA; experiment: Splicing RT-qPCR assay, HTT canonical (CJ) and alternative (AJ) junction mRNA; details: Homo sapiens; for IC50: canonical junction mRNA; for AC50: alternative junction mRNA, read-out: HTT AJ (AC50, increase in AJ mRNA)
Method in brief: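 Splicing switches are scored by TaqMan qPCR on cell lysate, comparing abundance of the normal exon junction with the new junction formed when the alternative exon is included. A673 results are referenced to PPIA and K562 results to GAPDH or GUSB. Compound exposure lasts 24 h.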

[2] = tested on: HiBiT-tagged MYB protein; experiment: HiBiT protein abundance assay, MYB (K562 HiBiT knock-in); details: HiBiT knock-in cells, 24 hours
Method in brief: (§1)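 Endogenously HiBiT-tagged K562 knock-in lines treated 24 h at 37 °C with 10-point 3-fold dilutions (top 10 μM final, DMSO ≤0.25%) in IMDM+1% FBS. Lytic Nano-Glo luminescence normalized to DMSO and unmodified K562 controls; four-parameter fit gives 50%-abundance concentration (IC50).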

[3] = tested on: HiBiT-tagged HTT protein; experiment: HiBiT protein abundance assay, HTT (K562 HiBiT knock-in); details: HiBiT knock-in cells, 24 hours
Method in brief: as §1

[4] = 24 h, RT-qPCR, A673 or K562 cells, 24 hours treatment, read-out: HTT CJ (IC50, decrease in CJ mRNA)
[5] = qPCR panel, read-out: HTT CJ (decrease in CJ mRNA levels, IC50)
[6] = RT-qPCR, A673 or K562 cells, 24 hours treatment

Compound | IC50 [1, 4] | IC50 [1, 5] | AC50 [1, 6] | IC50 [2] | IC50 [3]
Cc1c(O)c(-c2ccc3c(Cl)c(N4CCNCC4)cnc3n2)cc2cn(C)nc12 [Compound 278, 5-[5-chloro-6-(piperazin-1-yl)-1,8-naphthyridin-2-yl]-2,7-dimethylindazol-6-ol] | 1000 to 10000 nM | 1000 to 10000 nM | 1000 to 10000 nM | < 100 nM | 100 to 1000 nM
Cc1cn2nc(-c3cnc4nc(C5CCNCC5)ccc4c3)cc(C)c2n1 [Compound 115, 6-(2,8-dimethylimidazo[1,2-b]pyridazin-6-yl)-2-(piperidin-4-yl)-1,8-naphthyridine] | 1000 to 10000 nM | 1000 to 10000 nM | > 10000 nM | 1000 to 10000 nM | 1000 to 10000 nM
CNC(=O)c1cc(-c2cc3cn(C)nc3c(C)c2O)nc2ncc(N3CCNCC3)cc12 [Compound 150, 2-(6-hydroxy-2,7-dimethylindazol-5-yl)-N-methyl-6-(piperazin-1-yl)-1,8-naphthyridine-4-carboxamide] | > 10000 nM | > 10000 nM | > 10000 nM | > 10000 nM | > 10000 nM
Cc1c(O)c(-c2cc(Cl)c3cc(N(C)[C@H]4CCNC4)cnc3n2)cc2cn(C)nc12 [Compound 294] | 100 to 1000 nM | 100 to 1000 nM | 1000 to 10000 nM | 100 to 1000 nM | 100 to 1000 nM
Cn1cc2cc(-c3cnc4nc(N5CCC(NC(C)(C)C)C5)ccc4c3)c(O)cc2n1 (stereo not drawn) [Compound 133, 5-{7-[3-(tert-butylamino)pyrrolidin-1-yl]-1,8-naphthyridin-3-yl}-2-methylindazol-6-ol] | 1000 to 10000 nM | 1000 to 10000 nM | > 10000 nM | 1000 to 10000 nM | 100 to 1000 nM
Cc1c(O)c(-c2cc(Cl)c3cc(NC4CCNC4)cnc3n2)cc2cn(C)nc12 (stereo not drawn) [Compound 146, 5-[4-chloro-6-(359pyrrolidine-3-ylamino)-1,8-naphthyridin-2-yl]-2,7-dimethylindazol-6-ol] | 100 to 1000 nM | 100 to 1000 nM | 100 to 1000 nM | < 100 nM | 100 to 1000 nM
Cn1cc2cc(-c3cc(Cl)c4cc(N5CCNC6(CC6)C5)cnc4n3)c(O)c(F)c2n1 [Compound 274] | 100 to 1000 nM | 100 to 1000 nM | 100 to 1000 nM | < 100 nM | 100 to 1000 nM
Cc1cn2nc(-c3ccc4cc(N5C[C@@H](C)N[C@@H](C)C5)cnc4n3)cc(C)c2n1 [Compound 330] | 100 to 1000 nM | 100 to 1000 nM | 100 to 1000 nM | 100 to 1000 nM | 100 to 1000 nM
Cn1cc2cc(-c3ccc4cc(N5CC[C@@H](NCC6CC6)C5)cnc4n3)c(O)c(F)c2n1 [Compound 135, 5-{6-[(3R)-3-[(cyclopropylmethyl)amino]330pyrrolidine-1-yl]-1,8-naphthyridin-2-yl}-7-fluoro-2-methylindazol-6-ol] | < 100 nM | < 100 nM | < 100 nM | < 100 nM | < 100 nM
CN[C@@H]1CN(c2cnc3nc(-c4cc5cn(C)nc5c(C)c4O)ccc3c2)C[C@@H]1F [Compound 132, 5-{6-[(3S,4R)-3-fluoro-4-(methylamino)pyrrolidin-1-yl]-1,8-naphthyridin-2-yl}-2,7-dimethylindazol-6-ol] | 100 to 1000 nM | 100 to 1000 nM | 100 to 1000 nM | < 100 nM | 100 to 1000 nM
CNC1CCN(c2cnc3nc(-c4cc5cn(C)nc5c(C)c4O)ncc3c2)C1 (stereo not drawn) [Compound 104, 2,7-dimethyl-5-{6-[3-(methylamino)pyrrolidin-1-yl]pyrido[2,3-d]pyrimidin-2-yl}indazol-6-ol] | 100 to 1000 nM | 100 to 1000 nM | 100 to 1000 nM | < 100 nM | 100 to 1000 nM
Cc1c(O)c(-c2ccc3cc(N4CCC(NCC5CC5)C4)cnc3n2)cc2cn(C)nc12 (stereo not drawn) [Compound 105, 5-(6-{3-[(cyclopropylmethyl)amino]pyrrolidin-1-yl}-1,8-naphthyridin-2-yl)-2,7-dimethylindazol-6-ol] | 100 to 1000 nM | 100 to 1000 nM | 100 to 1000 nM | < 100 nM | < 100 nM
CCN[C@H]1CCN(c2cnc3nc(-c4cc5cn(C)nc5cc4O)cc(Cl)c3c2)C1 [Compound 318] | 100 to 1000 nM | 100 to 1000 nM | 1000 to 10000 nM | < 100 nM | 100 to 1000 nM
CN(c1cnc2nc(-c3cc4cn(C)nc4c(F)c3O)cc(Cl)c2c1)[C@H]1CCNC1 [Compound 275] | 1000 to 10000 nM | 1000 to 10000 nM | 1000 to 10000 nM | < 100 nM | 100 to 1000 nM
CN(c1cnc2nc(-c3cc4cn(C)nc4c(F)c3O)cc(Cl)c2c1)[C@@H]1CCNC1 [Compound 276] | 100 to 1000 nM | 100 to 1000 nM | 100 to 1000 nM | < 100 nM | 100 to 1000 nM
C[C@H]1CN(c2cnc3nc(-c4cc5cn(C)nc5c(F)c4O)cc(Cl)c3c2)C[C@H](C)N1 [Compound 280] | < 100 nM | < 100 nM | < 100 nM | < 100 nM | < 100 nM
C[C@H]1CN(c2cnc3nc(-c4cc(F)c5nn(C)cc5c4)cc(Cl)c3c2)C[C@@H](C2CC2)N1 [Compound 288] | 1000 to 10000 nM | 1000 to 10000 nM | 1000 to 10000 nM | 100 to 1000 nM | 1000 to 10000 nM
Cc1cn2nc(-c3cc(Cl)c4cc(N5C[C@H](C)N[C@@H](C)C5)cnc4n3)cc(C)c2n1 [Compound 336] | 100 to 1000 nM | 100 to 1000 nM | 100 to 1000 nM | < 100 nM | 100 to 1000 nM
Cc1cn2cc(-c3cc(Cl)c4cc(N5C[C@@H](C)N[C@@H](C)C5)cnc4n3)cc(F)c2n1 [Compound 297] | 1000 to 10000 nM | 1000 to 10000 nM | 1000 to 10000 nM | 100 to 1000 nM | 100 to 1000 nM
CN[C@H]1CCN(c2cnc3nc(-c4cc(C)c5nc(C)cn5n4)cc(Cl)c3c2)C1 [Compound 340] | 100 to 1000 nM | 100 to 1000 nM | 100 to 1000 nM | < 100 nM | < 100 nM
CN[C@@H]1CN(c2cnc3nc(-c4cc5cn(C)nc5c(C)c4O)ccc3c2)C[C@H]1C [Compound 126, 2,7-dimethyl-5-{6-[(3R,4S)-3-methyl-4-(methylamino)382pyrrolidine-1-yl]-1,8-naphthyridin-2-yl}indazol-6-ol] | 100 to 1000 nM | 100 to 1000 nM | 1000 to 10000 nM | 100 to 1000 nM | 100 to 1000 nM
Cc1c(O)c(-c2ccc3cc(N4CCC(NCC5CC5)C4)cnc3n2)cc2cn(C)nc12 (stereo in doubt) [Compound 119, 5-{6-[(3R)-3-[(cyclopropylmethyl)amino]pyrrolidin-1-yl]-1,8-naphthyridin-2-yl}-2,7-dimethylindazol-6-ol] | < 100 nM | < 100 nM | 100 to 1000 nM | < 100 nM | < 100 nM
Cc1c(O)c(-c2ccc3c(C(F)(F)F)c(N4CCNCC4)cnc3n2)cc2cn(C)nc12 [Compound 302, 2,7-dimethyl-5-[6-(piperazin-1-yl)-5-(trifluoromethyl)-1,8-naphthyridin-2-yl]indazol-6-ol] | 1000 to 10000 nM | 1000 to 10000 nM | > 10000 nM | 100 to 1000 nM | 1000 to 10000 nM
CN1CCC[C@@H]2CN(c3cnc4nc(-c5cc6cn(C)nc6c(F)c5O)cc(Cl)c4c3)C[C@@H]21 [Compound 303] | 100 to 1000 nM | 100 to 1000 nM | > 10000 nM | 100 to 1000 nM | 100 to 1000 nM
